Laboratory results as given in PubChem BioAssay AID2060344 (Molecular Pharmacology Branch, DTP, NCI, 2025).
Where “and” joins values, the source holds several entries; their conditions need not be identical. Equal values may be shown once.

Test system: SK-MEL-2 multi-cell spheroids, viability
Test: Anticancer human tumor SK-MEL-2 cell line growth inhibition [TAK];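 also: spheroids exposed to drugs for seven days before readout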;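 as to viability, T/C: percent of DMSO vehicle control luminescence so 100% = untreated viability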
Conditions: for viability, T/C: stronger effect = lower value
Excerpt: Combinatorial screen of targeted agents with TAK-243 and ipatasertib in multi-cell type tumor spheroids
A high-throughput screen of multi-cell type tumor spheroids was designed to identify active combinations of targeted small molecules and TAK-243 or ipatasertib. Complex spheroids include a stromal component modeled by human endothelial cells (HUVEC) and fibroblasts modeled by human mesenchymal stem cells (MSCs). The concentration ranges selected for each drug and investigational agent were based upon clinically achievable concentrations if the clinical Cmax of the agent was known.
Compounds. The drugs and investigational agents: TAK-243 (785004), ipatasertib (767898), everolimus (733504), selumetinib (741078), bortezomib (756655), trametinib (758246), ixazomib (758254), vemurafenib (761431), dabrafenib (764134), sapanisertib (764658), alpelisib (765974), and copanlisib (816437), were obtained from the National Cancer Institute (NCI) Developmental Therapeutics Program Chemical Repository. The FDA-approved anticancer drug set is available from the NCI Developmental Therapeutics Program. […] The stock solutions were prepared in dimethyl sulfoxide (DMSO, Sigma-Aldrich, St. Louis, MO, cat. D2650) at 800-fold the tested concentration and stored at -70 degrees C prior to their use. All drugs and investigational agents were tested over a range starting from a high concentration at or near the clinical Cmax and decreasing in half-log increments. If the clinical Cmax for an agent had not been determined, the highest concentration tested was 10 microM.
NCI60 Cell Culture. NCI60 cell lines were obtained from the NCI Developmental Therapeutics Program Tumor Repository. For each lot of cells, the Repository performed Applied Biosystems AmpFLSTR Identifiler testing with PCR amplification to confirm consistency with the published Identifier STR profile for each cell line. Cells were kept in continuous culture for no more than 20 passages. The optimal seeding densities for each of the cell lines at each time point assessed were determined prior to performing the concentration response studies. Briefly, the NCI60 human tumor lines were grown as monolayers in RPMI 1640 medium supplemented with 10% FBS and 2 mmol/L L-glutamine.
An additional 2 lines were from the NCI60 cell line panel including melanomas, MALME-3M and SK-MEL-2. Pooled donor human umbilical vein endothelial cells (HUVEC, Lonza, cat. CC-2519) and human mesenchymal stem cells (hMSC, Lonza, cat. PT-2501) were purchased from Lonza (Walkersville, MD).
PDMR cell lines were grown in complete medium (DC medium): Dulbecco's modified Eagle's medium (DMEM)/F12 supplemented with 5% fetal bovine serum (FBS), 2 mM L-glutamine, 100 U/mL penicillin and 100 µg/ml streptomycin, 0.4 µg/ml hydrocortisone, 10 ng/ml epidermal growth factor (EGF) recombinant human protein, 24 µg/mL adenine, and 0.1 mg/mL primocin. During culture from frozen stock vials, PDMR cells were cultured in the same medium containing 10 µM Y-27632 (see Table 3). The PDCs were cultured in complete DMEM/F12 media without 10 microM Y-27632 dihydrochloride for at least two passages prior to the screen. The pooled donor HUVEC and hMSC were cultured in endothelial cell growth medium 2 (PromoCell, Heidelberg, Germany, cat. C-22011) and mesenchymal stem cell growth medium 2 (PromoCell, cat. C-28009), respectively. For all experiments, HUVEC and hMSC were used at passages </=5.
For the pre-screen, cell seeding densities were determined from a titration spanning the range from 5,000 to 313 cells per well. The mct-spheroids including 60% malignant cells, 25% HUVEC and 15% MSC dispensed as a mixture into U-bottom Ultra-Low Attachment 384-well plates (Corning, NY)
High-throughput Drug Combination Screening.
Prior to their inoculation into 384-well plates, malignant cells, HUVEC, and hMSC were removed from T flasks using TrypLE express (Thermo Fisher Scientific, cat. 12605036) and harvested by centrifugation for 5 min at 233 x g. […]

[1] = curve of first compound, second compound 0.3 µM
[2] = curve of first compound, second compound 0.949 µM
[3] = curve of first compound, second compound 3 µM
[4] = curve of first compound, second compound 9.49 µM
[5] = curve of first compound, second compound 30 µM
[6] = second compound 0.3 µM, first compound 0.00316 µM
[7] = second compound 0.3 µM, first compound 0.01 µM
[8] = second compound 0.3 µM, first compound 0.0316 µM
[9] = second compound 0.3 µM, first compound 0.1 µM
[10] = second compound 0.949 µM, first compound 0.00316 µM
[11] = second compound 0.949 µM, first compound 0.01 µM
[12] = second compound 0.949 µM, first compound 0.0316 µM
[13] = second compound 0.949 µM, first compound 0.1 µM
[14] = second compound 3 µM, first compound 0.00316 µM
[15] = second compound 3 µM, first compound 0.01 µM
[16] = second compound 3 µM, first compound 0.0316 µM
[17] = second compound 3 µM, first compound 0.1 µM
[18] = second compound 9.49 µM, first compound 0.00316 µM
[19] = second compound 9.49 µM, first compound 0.01 µM
[20] = second compound 9.49 µM, first compound 0.0316 µM
[21] = second compound 9.49 µM, first compound 0.1 µM
[22] = second compound 30 µM, first compound 0.00316 µM
[23] = second compound 30 µM, first compound 0.01 µM
[24] = second compound 30 µM, first compound 0.0316 µM
[25] = second compound 30 µM, first compound 0.1 µM
[26] = second compound 0.3 µM, first compound 0.316 µM
[27] = second compound 0.3 µM, first compound 1 µM
[28] = second compound 0.949 µM, first compound 0.316 µM
[29] = second compound 0.949 µM, first compound 1 µM
[30] = second compound 3 µM, first compound 0.316 µM
[31] = second compound 3 µM, first compound 1 µM
[32] = second compound 9.49 µM, first compound 0.316 µM
[33] = second compound 9.49 µM, first compound 1 µM
[34] = second compound 30 µM, first compound 0.316 µM
[35] = second compound 30 µM, first compound 1 µM

With `Cn1cnc2c(F)c(Nc3ccc(Br)cc3Cl)c(C(=O)NOCCO)cc21` the viability, T/C (compound 0.00949 µM) was 46.8% and 40.8%, the viability, T/C (compound 0.03 µM) was 34.6% and 17.4% and the viability, T/C (compound 0.0949 µM) was 19.7% and 9.79%. The viability, T/C (compound 0.3 µM) was 21.9% and 7.35%, the viability, T/C (compound 0.949 µM) was 14.6% and 5.25% and the viability, T/C (compound 3 µM) was 14.1% and 2.56%. The IC50 (curve of compound) was < 9.49 nM.
`CC(C)(C)c1nc(-c2cccc(NS(=O)(=O)c3c(F)cccc3F)c2F)c(-c2ccnc(N)n2)s1` was tested, and the viability, T/C (compound 0.0316 µM) was 137% and 126%, the viability, T/C (compound 0.1 µM) was 126% and 122% and the viability, T/C (compound 0.316 µM) was 82.3% and 76.3%. For the same compound, the viability, T/C (compound 1 µM) was 28.8% and 32%, the viability, T/C (compound 3.16 µM) was 13.3% and 16.8% and the viability, T/C (compound 10 µM) was 18.9% and 22.2%. The IC50 (curve of compound) was 631 nM and 615 nM.
In the case of `CC(C)CC(NC(=O)CNC(=O)c1cc(Cl)ccc1Cl)B1OC(=O)CC(CC(=O)O)(C(=O)O)O1` (stereo not given) + CC(C)NCC(C(=O)N1CCN(c2ncnc3c2C(C)CC3O)CC1)c1ccc(Cl)cc1, the IC50 [1] is reported as 17.1 nM, the IC50 [2] is reported as 12.8 nM and the IC50 [3] is reported as 5.07 nM. For the same compound, the IC50 [4] was 2.04 nM, the IC50 [5] was < 0.316 nM and the viability, T/C (second compound 0.3 µM, first compound 0.000316 µM) was 94.8%. It also gave a viability, T/C (second compound 0.3 µM, first compound 0.001 µM) of 94.7%, a viability, T/C [6] of 85% and a viability, T/C [7] of 64.9%. For the same compound, the viability, T/C [8] was 32.8%, the viability, T/C [9] was 5.51% and the viability, T/C (second compound 0.949 µM, first compound 0.000316 µM) was 81.3%. For the same compound, the viability, T/C (second compound 0.949 µM, first compound 0.001 µM) was 76.5%, the viability, T/C [10] was 70.3% and the viability, T/C [11] was 59.5%. It also gave a viability, T/C [12] of 20.2%, a viability, T/C [13] of 6.05% and a viability, T/C (second compound 3 µM, first compound 0.000316 µM) of 70%. The viability, T/C (second compound 3 µM, first compound 0.001 µM) was 67%, the viability, T/C [14] was 53.8% and the viability, T/C [15] was 43.3%. For the same compound, the viability, T/C [16] was 20.2%, the viability, T/C [17] was 5.6% and the viability, T/C (second compound 9.49 µM, first compound 0.000316 µM) was 52.6%. It also gave a viability, T/C (second compound 9.49 µM, first compound 0.001 µM) of 55.7%, a viability, T/C [18] of 44.2% and a viability, T/C [19] of 40.3%. For the same compound, the viability, T/C [20] was 17.9%, the viability, T/C [21] was 5.27% and the viability, T/C (second compound 30 µM, first compound 0.000316 µM) was 47.8%. The viability, T/C (second compound 30 µM, first compound 0.001 µM) was 47.5%, the viability, T/C [22] was 41.7% and the viability, T/C [23] was 33.5%. The viability, T/C [24] was 14.4% and the viability, T/C [25] was 4.44%.
`CC(C)NCC(C(=O)N1CCN(c2ncnc3c2C(C)CC3O)CC1)c1ccc(Cl)cc1` (stereo not given) was tested, and the IC50 (compound alone, run of 02/20/2020) was > 30000 nM.
`COc1c(OCCCN2CCOCC2)ccc2c3n(c(=NC(=O)c4cnc(N)nc4)nc12)CCN3` + CC(C)NCC(C(=O)N1CCN(c2ncnc3c2C(C)CC3O)CC1)c1ccc(Cl)cc1 gave an IC50 [1] of 51.3 nM, an IC50 [2] of 29.4 nM and an IC50 [3] of 20.8 nM. For the same compound, the IC50 [4] was 14.5 nM, the IC50 [5] was 9.89 nM and the viability, T/C [6] was 92%. The viability, T/C [7] was 72.5%, the viability, T/C [8] was 50.6% and the viability, T/C [9] was 45.6%. It also gave a viability, T/C [26] of 30.9%, a viability, T/C [27] of 19.5% and a viability, T/C [10] of 81%. For the same compound, the viability, T/C [11] was 65%, the viability, T/C [12] was 47.1% and the viability, T/C [13] was 38.4%. For the same compound, the viability, T/C [28] was 27.6%, the viability, T/C [29] was 21% and the viability, T/C [14] was 68.5%. It also gave a viability, T/C [15] of 62.9%, a viability, T/C [16] of 40.2% and a viability, T/C [17] of 34.2%. For the same compound, the viability, T/C [30] was 26.1%, the viability, T/C [31] was 19.5% and the viability, T/C [18] was 59.8%. It also gave a viability, T/C [19] of 57.6%, a viability, T/C [20] of 37% and a viability, T/C [21] of 31.4%. It also gave a viability, T/C [32] of 24.6%, a viability, T/C [33] of 21.1% and a viability, T/C [22] of 52.5%. It also gave a viability, T/C [23] of 50.8%, a viability, T/C [24] of 41.6% and a viability, T/C [25] of 28.8%. It also gave a viability, T/C [34] of 21.1% and a viability, T/C [35] of 16.3%.
For `CC(C)(C)c1nc(-c2cccc(NS(=O)(=O)c3c(F)cccc3F)c2F)c(-c2ccnc(N)n2)s1` + CC(C)NCC(C(=O)N1CCN(c2ncnc3c2C(C)CC3O)CC1)c1ccc(Cl)cc1, the IC50 [1] was 590 nM, the IC50 [2] was 496 nM and the IC50 [3] was 323 nM. For the same compound, the IC50 [4] was 285 nM, the IC50 [5] was 230 nM and the viability, T/C [8] was 138%. The viability, T/C [9] was 118%, the viability, T/C [26] was 75.9% and the viability, T/C [27] was 28.6%. The viability, T/C (second compound 0.3 µM, first compound 3.16 µM) was 12.5%, the viability, T/C (second compound 0.3 µM, first compound 10 µM) was 17.2% and the viability, T/C [12] was 119%. It also gave a viability, T/C [13] of 109%, a viability, T/C [28] of 66.3% and a viability, T/C [29] of 25.6%. It also gave a viability, T/C (second compound 0.949 µM, first compound 3.16 µM) of 8.33%, a viability, T/C (second compound 0.949 µM, first compound 10 µM) of 15.6% and a viability, T/C [16] of 108%. It also gave a viability, T/C [17] of 105%, a viability, T/C [30] of 50.1% and a viability, T/C [31] of 15.7%. For the same compound, the viability, T/C (second compound 3 µM, first compound 3.16 µM) was 6.41%, the viability, T/C (second compound 3 µM, first compound 10 µM) was 11.7% and the viability, T/C [20] was 88.1%. For the same compound, the viability, T/C [21] was 85.5%, the viability, T/C [32] was 46.5% and the viability, T/C [33] was 9.65%. It also gave a viability, T/C (second compound 9.49 µM, first compound 3.16 µM) of 4.3%, a viability, T/C (second compound 9.49 µM, first compound 10 µM) of 10.2% and a viability, T/C [24] of 73.1%. It also gave a viability, T/C [25] of 73.8%, a viability, T/C [34] of 41.1% and a viability, T/C [35] of 9.6%. The viability, T/C (second compound 30 µM, first compound 3.16 µM) was 5.11% and the viability, T/C (second compound 30 µM, first compound 10 µM) was 10%.
